Calls of active or inactive are those of the source.
Tests used:
[1] = StAR promoter reporter inhibition counter-screen, dose response, counter-screen for LRH-1 inverse agonist project, cell-based, luminescence, luciferase reporter (AID 651969); format: functional
[2] = biological target: Nuclear receptor subfamily 5 group A member 2 (Homo sapiens, UniProt O00482); format: functional, cell-based;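 note: HEK293T cells transfected with LRH-1 and a StAR promoter luciferase reporter; potency for inhibitors that lower LRH-1 driven reporter light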
Steroidogenic factor 1 = Steroidogenic factor 1 (Homo sapiens, UniProt Q13285); test: Counterscreen for inverse agonists of the liver receptor homolog-1 (LRH-1; NR5A2): Luminescence-based cell-based high throughput dose response assay to identify inverse agonists of the Steroidogenic Factor 1 Nuclear Receptor (SF1; NR5A1).; format: functional
[3] = biological target: Arf-GAP with SH3 domain, ANK repeat and PH domain-containing protein 1 (Homo sapiens, UniProt Q9ULH1); format: functional;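 note: biochemical fluorescence polarization dose–response screen measuring inhibition of ASAP1; ASAP1 GAP domain stimulating GTP hydrolysis by truncated human ARF1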
[4] = biological target: T1, DNA repair protein RAD52 homolog (Homo sapiens, UniProt P43351); format: functional, biochemical
T1 sequence (P43351 whole entry): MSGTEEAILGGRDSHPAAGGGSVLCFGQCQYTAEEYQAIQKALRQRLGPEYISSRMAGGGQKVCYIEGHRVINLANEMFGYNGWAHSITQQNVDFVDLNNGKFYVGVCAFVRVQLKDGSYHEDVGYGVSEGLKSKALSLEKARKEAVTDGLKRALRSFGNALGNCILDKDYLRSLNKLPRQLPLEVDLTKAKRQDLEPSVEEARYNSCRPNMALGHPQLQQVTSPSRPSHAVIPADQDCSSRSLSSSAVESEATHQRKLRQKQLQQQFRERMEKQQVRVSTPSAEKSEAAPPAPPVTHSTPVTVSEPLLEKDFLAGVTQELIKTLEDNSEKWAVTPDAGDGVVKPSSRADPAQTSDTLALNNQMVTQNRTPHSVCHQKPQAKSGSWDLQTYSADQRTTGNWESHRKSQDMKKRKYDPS

Nonstructural protein 1 = Nonstructural protein 1 (Influenza A virus, UniProt Q194T2); format: functional, Influenza A virus (A/California/07/2009(H1N1))
[5] = growth suppression of beta-catenin-knockout colon cells, dose response, cell-based, HCT116, human colon tumor (AID 1045); format: functional;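 note: HCT116 colon tumor cells with beta catenin knocked out; cells exposed to compound for 60 hours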
[6] = growth suppression of PTEN-null colon cells, dose response, cell-based, HCT116 PTEN knockout (AID 1047); format: functional;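 note: HCT116 colon tumor cells with PTEN knocked out; cells exposed to compound for 60 hours before readout; potency for loss of cell viability measured by luminescence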
[7] = biological target: T2, Aryl hydrocarbon receptor (Homo sapiens, UniProt P35869); conditions: Potency;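 note: confirmatory quantitative high-throughput screen measuring activation of the AhR signaling pathway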
T2 sequence (P35869 whole entry): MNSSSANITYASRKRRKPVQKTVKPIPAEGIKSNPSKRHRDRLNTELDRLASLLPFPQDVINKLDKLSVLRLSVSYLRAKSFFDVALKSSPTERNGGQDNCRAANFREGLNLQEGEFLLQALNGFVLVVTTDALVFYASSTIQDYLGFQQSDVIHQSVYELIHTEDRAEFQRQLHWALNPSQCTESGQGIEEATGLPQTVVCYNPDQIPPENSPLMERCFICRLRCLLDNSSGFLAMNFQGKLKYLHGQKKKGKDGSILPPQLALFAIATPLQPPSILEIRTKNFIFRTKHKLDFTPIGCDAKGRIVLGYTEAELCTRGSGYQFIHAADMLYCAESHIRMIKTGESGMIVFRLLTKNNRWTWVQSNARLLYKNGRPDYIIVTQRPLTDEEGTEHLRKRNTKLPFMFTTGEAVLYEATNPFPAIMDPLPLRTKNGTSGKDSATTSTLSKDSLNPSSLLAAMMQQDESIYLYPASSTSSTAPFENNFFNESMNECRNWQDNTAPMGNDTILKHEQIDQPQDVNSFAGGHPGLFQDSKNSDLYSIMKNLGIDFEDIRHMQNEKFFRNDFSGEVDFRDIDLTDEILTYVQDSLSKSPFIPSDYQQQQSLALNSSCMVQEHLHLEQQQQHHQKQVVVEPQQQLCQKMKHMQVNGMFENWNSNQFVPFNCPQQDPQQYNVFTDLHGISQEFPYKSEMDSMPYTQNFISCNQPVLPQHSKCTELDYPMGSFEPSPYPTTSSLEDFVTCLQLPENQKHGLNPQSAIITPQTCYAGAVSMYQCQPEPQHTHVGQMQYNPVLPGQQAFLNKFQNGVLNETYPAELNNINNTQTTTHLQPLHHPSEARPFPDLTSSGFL

Beta-lactamase [8] = biological target: Beta-lactamase (Salmonella choleraesuis (strain SC-B67), UniProt Q5J463); test: Epi-absorbance-based counterscreen for selective VIM-2 inhibitors: dose response biochemical high throughput screening assay to identify inhibitors of TEM-1 serine-beta-lactamase.
Beta-lactamase [9] = biological target: T3, Beta-lactamase (Pseudomonas aeruginosa, UniProt Q79MP6); test: IMP-1 metallo-beta-lactamase inhibitors, dose response, selectivity assay for VIM-2 inhibitor project, biochemical, epi-absorbance (AID 1920)
Beta-lactamase [10] = biological target: T3, Beta-lactamase; test: […] counterscreen for selective VIM-2 inhibitors: dose response biochemical high throughput screening assay to identify inhibitors of IMP-1 metallo-beta-lactamase.
[11] = inhibitors of intracellular T. cruzi replication, confirmation, NIH3T3 host cells, beta-gal luminescence (AID 2044); format: functional, cell-based;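 note: intracellular parasites grown in NIH/3T3 mouse fibroblasts as host cells; luminescent beta-galactosidase reporter signal from transgenic T. cruzi replicating inside host cells; inhibitors lower the luminescence signal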
[12] = HepG2 cell cytotoxicity, dose response, cytotoxicity control for Shn3 inhibitor project, CellTiter-Glo, cherry-picked (AID 624134); format: functional, cell-based
[13] = Shn3 3'UTR reporter inhibitors, dose response, cell-based, Clone20 osteoblasts, firefly luciferase, cherry-picked (AID 624132); format: functional;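 note: firefly luciferase luminescence from reporter carrying the Shn3 3'UTR in osteoblasts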
cells [14] = format: functional, cell-based
[15] = inhibitors of firefly luciferase expression or activity, dose response, H4 neuroglioma cells, luminescence (AID 1990); format: functional, cell-based
[16] = Luminescence Cell-Based Dose Response HTS to Identify Inhibitors of 5'UTR Stem-Loop Driven Prion Protein mRNA Translation in H4 Neuroglioblastoma Cells. [Related pubchem assays: 1827 (Project Summary), 1813 (Primary HTS)]; format: functional
[17] = cytotoxicity toward NIH3T3 fibroblasts, dose response, counter-screen, cell-based, ATP luminescence, mouse fibroblasts (AID 2010); format: functional;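 note: cells exposed to compound for about 90 hours before reading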
[18] = inhibitors of SNCA 5'UTR-driven reporter translation, confirmation, H4 neuroglioma cells, luminescence (AID 1988); format: functional, cell-based
[19] = control 3'UTR Renilla luciferase suppression, dose response, counter-screen for Shn3 inhibitor project, cell-based, Clone20-Shn3RL, cherry-picked (AID 624133); format: functional
[20] = cytotoxicity in NIH3T3 fibroblasts, dose response, cytotoxicity control for HSP40 inhibitor project, cell-based, CellTiter-Glo luminescence, cherry-pick, set 2 (AID 624265); format: functional
cells [21] = format: functional, cell-based; remark: listed apart in the source
[22] = biological target: Photoreceptor-specific nuclear receptor (Homo sapiens, UniProt Q9Y5X4); format: functional, cell-based;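 note: CHO-S cells with Gal4-NCOR and VP16-NR2E3 two-hybrid luciferase reporter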
[23] = test system: Streptococcus sp. 'group A'; test: growth inhibition of control SK(-) GAS strain, dose response, counter-screen for streptokinase expression inhibitor project, luminescence, kanamycin, BacTiterGlo, confirmation (AID 1900); format: functional, organism-based
Streptococcus = test: Group A Streptococcus viability loss, dose response, counter-screen for streptokinase expression inhibitor project, luminescence, BacTiterGlo (AID 1915); format: functional, organism-based;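 note: potency for reduction of bacterial viability or growth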
INS1 = test: beta cell apoptosis inhibitors, cytokine rescue, dose response, luminescence, retest (AID 449756); format: functional, cell-based; conditions: Rattus norvegicus;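 note: cell death triggered by IL-1 beta plus TNF-alpha plus IFN-gamma mixture; protective hits raise ATP signal compared with cytokine alone wells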

T3 sequence (Q79MP6 whole entry): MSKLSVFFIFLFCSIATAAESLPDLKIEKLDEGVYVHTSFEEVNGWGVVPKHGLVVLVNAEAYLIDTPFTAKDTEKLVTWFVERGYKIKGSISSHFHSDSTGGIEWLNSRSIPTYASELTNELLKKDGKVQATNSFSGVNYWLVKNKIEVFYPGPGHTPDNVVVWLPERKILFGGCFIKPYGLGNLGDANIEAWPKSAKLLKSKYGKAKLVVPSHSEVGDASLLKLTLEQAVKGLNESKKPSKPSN
Chain of Beta-lactamase (Salmonella choleraesuis (strain SC-B67), UniProt Q5J463) (Q5J463 whole entry): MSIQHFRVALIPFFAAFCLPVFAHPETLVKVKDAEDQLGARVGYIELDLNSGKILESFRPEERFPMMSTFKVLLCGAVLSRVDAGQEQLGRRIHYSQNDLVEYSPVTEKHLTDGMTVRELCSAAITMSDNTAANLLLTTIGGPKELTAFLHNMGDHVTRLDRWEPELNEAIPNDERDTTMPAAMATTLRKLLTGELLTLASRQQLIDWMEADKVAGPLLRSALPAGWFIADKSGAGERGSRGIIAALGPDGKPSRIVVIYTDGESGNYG
Chain of Nonstructural protein 1 (Q194T2 whole entry): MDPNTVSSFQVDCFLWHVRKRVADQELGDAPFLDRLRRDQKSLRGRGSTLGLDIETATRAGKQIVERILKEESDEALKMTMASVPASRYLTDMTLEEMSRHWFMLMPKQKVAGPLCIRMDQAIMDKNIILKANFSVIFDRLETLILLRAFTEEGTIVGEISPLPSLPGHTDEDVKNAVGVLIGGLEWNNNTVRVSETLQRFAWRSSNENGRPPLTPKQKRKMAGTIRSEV
Chain of Nuclear receptor subfamily 5 group A member 2 (O00482 whole entry): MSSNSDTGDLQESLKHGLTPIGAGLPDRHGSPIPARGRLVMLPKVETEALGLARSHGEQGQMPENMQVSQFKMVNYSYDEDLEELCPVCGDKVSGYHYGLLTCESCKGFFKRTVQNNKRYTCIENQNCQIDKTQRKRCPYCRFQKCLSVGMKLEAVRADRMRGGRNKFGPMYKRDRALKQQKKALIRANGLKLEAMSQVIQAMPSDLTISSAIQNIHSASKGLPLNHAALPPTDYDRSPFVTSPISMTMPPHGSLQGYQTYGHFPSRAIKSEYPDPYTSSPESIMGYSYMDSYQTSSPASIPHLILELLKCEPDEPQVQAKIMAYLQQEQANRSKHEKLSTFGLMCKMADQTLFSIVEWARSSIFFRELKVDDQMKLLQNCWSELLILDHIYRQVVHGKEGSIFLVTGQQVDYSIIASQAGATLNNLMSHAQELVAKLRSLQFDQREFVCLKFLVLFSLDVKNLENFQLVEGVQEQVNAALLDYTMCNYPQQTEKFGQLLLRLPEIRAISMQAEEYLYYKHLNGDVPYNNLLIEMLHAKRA
Chain of Photoreceptor-specific nuclear receptor (Q9Y5X4 whole entry, the tested form may be a part): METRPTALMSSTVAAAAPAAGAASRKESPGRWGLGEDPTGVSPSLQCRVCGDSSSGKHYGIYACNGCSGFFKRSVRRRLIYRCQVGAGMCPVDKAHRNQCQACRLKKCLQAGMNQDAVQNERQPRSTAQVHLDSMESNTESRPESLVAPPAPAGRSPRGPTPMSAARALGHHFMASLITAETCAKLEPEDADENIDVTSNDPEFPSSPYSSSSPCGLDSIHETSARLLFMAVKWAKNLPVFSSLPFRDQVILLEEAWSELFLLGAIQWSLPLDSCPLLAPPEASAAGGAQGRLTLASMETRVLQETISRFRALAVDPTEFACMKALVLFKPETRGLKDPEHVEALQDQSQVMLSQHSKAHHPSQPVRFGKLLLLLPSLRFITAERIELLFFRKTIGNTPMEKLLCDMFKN
Chain of Arf-GAP with SH3 domain, ANK repeat and PH domain-containing protein 1 (Q9ULH1 whole entry, the tested form may be a part): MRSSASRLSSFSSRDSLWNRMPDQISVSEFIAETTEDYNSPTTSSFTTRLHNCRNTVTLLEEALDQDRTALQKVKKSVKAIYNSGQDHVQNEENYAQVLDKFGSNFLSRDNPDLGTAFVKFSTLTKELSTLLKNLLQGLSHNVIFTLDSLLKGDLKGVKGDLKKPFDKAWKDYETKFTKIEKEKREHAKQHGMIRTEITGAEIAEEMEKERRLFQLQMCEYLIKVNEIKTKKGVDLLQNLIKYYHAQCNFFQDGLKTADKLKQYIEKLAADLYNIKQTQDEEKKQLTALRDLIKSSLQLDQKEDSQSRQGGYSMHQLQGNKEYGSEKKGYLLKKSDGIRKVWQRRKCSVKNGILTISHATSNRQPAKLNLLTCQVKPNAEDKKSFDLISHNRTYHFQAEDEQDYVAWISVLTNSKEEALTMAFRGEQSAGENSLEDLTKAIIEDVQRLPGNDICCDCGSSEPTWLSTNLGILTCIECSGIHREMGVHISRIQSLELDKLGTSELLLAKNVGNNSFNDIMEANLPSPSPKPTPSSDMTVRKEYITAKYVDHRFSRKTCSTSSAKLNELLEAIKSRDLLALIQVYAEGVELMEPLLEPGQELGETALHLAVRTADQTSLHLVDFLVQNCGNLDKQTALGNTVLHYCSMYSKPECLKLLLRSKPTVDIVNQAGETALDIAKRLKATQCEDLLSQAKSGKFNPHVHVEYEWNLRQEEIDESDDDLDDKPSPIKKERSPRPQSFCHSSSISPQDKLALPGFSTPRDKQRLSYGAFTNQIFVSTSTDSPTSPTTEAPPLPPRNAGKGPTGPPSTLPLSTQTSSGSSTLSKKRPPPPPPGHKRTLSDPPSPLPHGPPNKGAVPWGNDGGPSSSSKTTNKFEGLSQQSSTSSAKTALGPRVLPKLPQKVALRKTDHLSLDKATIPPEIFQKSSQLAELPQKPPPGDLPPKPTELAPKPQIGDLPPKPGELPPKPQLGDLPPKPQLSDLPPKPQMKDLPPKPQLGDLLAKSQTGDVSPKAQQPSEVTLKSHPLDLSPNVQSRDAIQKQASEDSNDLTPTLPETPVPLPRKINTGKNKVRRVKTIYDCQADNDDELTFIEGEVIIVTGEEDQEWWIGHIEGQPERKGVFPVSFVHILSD
Chain of Steroidogenic factor 1 (Q13285 whole entry, the tested form may be a part): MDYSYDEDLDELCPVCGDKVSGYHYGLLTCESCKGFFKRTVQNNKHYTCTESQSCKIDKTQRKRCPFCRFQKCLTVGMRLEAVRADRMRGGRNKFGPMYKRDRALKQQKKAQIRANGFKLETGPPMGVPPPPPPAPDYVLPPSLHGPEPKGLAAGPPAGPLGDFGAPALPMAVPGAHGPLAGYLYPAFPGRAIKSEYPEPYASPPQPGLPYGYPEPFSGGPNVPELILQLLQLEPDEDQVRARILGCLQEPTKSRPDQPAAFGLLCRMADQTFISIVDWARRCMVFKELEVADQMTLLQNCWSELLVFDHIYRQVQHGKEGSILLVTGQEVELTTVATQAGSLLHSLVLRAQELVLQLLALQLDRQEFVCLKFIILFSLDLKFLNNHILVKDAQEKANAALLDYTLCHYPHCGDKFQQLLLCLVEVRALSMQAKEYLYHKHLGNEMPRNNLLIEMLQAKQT

COc1cc([N+](=O)[O-])ccc1NC(=O)Cn1ccsc1=N
IC50 [1]: 35.9 µM (inactive)
IC50 [2]: 35.9 µM (inactive)
IC50 (Steroidogenic factor 1): 1.95 µM (active)

CCC(/C=C1\Sc2ccc(OC)cc2N1CCO)=C\c1sc2ccc(OC)cc2[n+]1CCO
IC50 [3]: 165 µM (inactive)
AC50 [4]: 1.77 µM (active)
IC50 (Nonstructural protein 1): 5.11 µM (active)
EC50 [5]: 5.82 µM (active)
EC50 [6]: 5.7 µM (active)

CC1(C)C(C=C(Cl)Cl)C1C(=O)OCc1cccc(Oc2ccccc2)c1 (configuration not stated) [PERMETHRIN]
AC50 [7]: 44.7 µM (inconclusive)

O=C(c1ccco1)N1N=C(c2ccc(Cl)cc2)CC1c1ccco1 (configuration not stated)
IC50 (Beta-lactamase [8]): > 59.6 µM (inactive)
IC50 (Beta-lactamase [9]): > 59.6 µM (inactive)
IC50 (Beta-lactamase [10]): > 59.6 µM (inactive)

COc1cnc(-c2ccccn2)nc1N(C)c1ccccc1
EC50 [11]: 1.89 µM (active)
AC50 [12]: 4.02 µM (active)
AC50 [13]: 1.83 µM (active)
EC50 (cells [14]): 8.25 µM (active)
EC50 [15]: 8.68 µM (active)
EC50 [16]: 7.24 µM (active)
EC50 [17]: 5.78 µM (active)
EC50 [18]: > 120 µM (not active)
AC50 [19]: 0.92 µM (active)
AbsAC35_uM [20]: 62.35 µM
EC50 (cells [21]): > 350 µM (not active)
IC50 [22]: 4.58 µM (active)
EC50 [23]: 4.74 µM (active)
EC50 (Streptococcus): 11 µM (active)
AC50 (INS1): 4.34 µM (active)

Source: ChEMBL document CHEMBL1201862, “PubChem BioAssay data set” (2004)
